Source: ChEMBL document CHEMBL1124526, “Synthesis and biological evaluation of certain 3-beta-D-ribofuranosyl-1,2,4-triazolo[4,3-b)pyridazines related to formycin prepared via ring closure of pyridazine precursors” (J Med Chem, 1989)
Active and inactive are the calls of the source.

Columns and labels:
Semliki Forest virus = test: In vitro antiviral activity against semliki forest virus (original); Compound was inactive at 100 uM and 1000 uM respectively.; assay type: functional, organism-based
CCRF-CEM = test: In vitro ability to inhibit the growth of CCRF-CEM human T-lymphoblastic leukemia; Compound was inactive at 100 uM and 1000 uM respectively.; assay type: functional, cell-based
Human adenovirus 2 = test: In vitro antiviral activity against adeno virus type 2; Compound was inactive at 100 uM and 1000 uM respectively.; assay type: functional, organism-based
Human alphaherpesvirus 2 = test: In vitro antiviral activity against herpes simplex virus type 2 (MS); Compound was inactive at 100 uM and 1000 uM respectively.; assay type: functional, organism-based
L1210 = test: In vitro ability to inhibit the growth of L1210 murine lymphocytic leukemia; Compound was inactive at 100 uM and 1000 uM respectively.; assay type: functional, cell-based; conditions: Mus musculus
Influenza A virus = test: In vitro antiviral activity against influenza A virus (chile); Compound was inactive at 100 uM and 1000 uM respectively.; assay type: functional, organism-based
Human rhinovirus 1A = test: In vitro antiviral activity against rhino virus type 1-A (2060); Compound was inactive at 100 uM and 1000 uM respectively.; assay type: functional, organism-based
Human respirovirus 3 = test: In vitro antiviral activity against parainfluenza virus type 3 (C243); Compound was inactive at 100 uM and 1000 uM respectively.; assay type: functional, organism-based
Visna-maedi virus = test: In vitro antiviral activity against vinsa virus (1513); Compound was inactive at 100 uM and 1000 uM respectively.; assay type: functional, organism-based
Homo sapiens = species on record: Homo sapiens; test: In vitro ability to inhibit the growth of WI-L2 human B-lymphoblastic leukemia; Compound was inactive at 100 uM and 1000 uM respectively.; assay type: functional

Measured: Activity

COc1ccc2nnc([C@@H]3O[C@H](CO)[C@@H](O)[C@H]3O)n2n1
inactive: Semliki Forest virus inactive at 100 uM and 1000 uM respectively | CCRF-CEM inactive at 100 uM and 1000 uM respectively | Human adenovirus 2 inactive at 100 uM and 1000 uM respectively | Human alphaherpesvirus 2 inactive at 100 uM and 1000 uM respectively | L1210 inactive at 100 uM and 1000 uM respectively | Influenza A virus inactive at 100 uM and 1000 uM respectively | Human rhinovirus 1A inactive at 100 uM and 1000 uM respectively | Human respirovirus 3 inactive at 100 uM and 1000 uM respectively | Visna-maedi virus inactive at 100 uM and 1000 uM respectively | Homo sapiens inactive at 100 uM and 1000 uM respectively

Nc1cnn2c([C@@H]3O[C@H](CO)[C@@H](O)[C@H]3O)nnc2c1Cl
inactive: Semliki Forest virus inactive at 100 uM and 1000 uM respectively | CCRF-CEM inactive at 100 uM and 1000 uM respectively | Human adenovirus 2 inactive at 100 uM and 1000 uM respectively | Human alphaherpesvirus 2 inactive at 100 uM and 1000 uM respectively | L1210 inactive at 100 uM and 1000 uM respectively | Influenza A virus inactive at 100 uM and 1000 uM respectively | Human rhinovirus 1A inactive at 100 uM and 1000 uM respectively | Human respirovirus 3 inactive at 100 uM and 1000 uM respectively | Visna-maedi virus inactive at 100 uM and 1000 uM respectively | Homo sapiens inactive at 100 uM and 1000 uM respectively

Nc1ccnn2c([C@@H]3O[C@H](CO)[C@@H](O)[C@H]3O)nnc12
inactive: Semliki Forest virus inactive at 100 uM and 1000 uM respectively | CCRF-CEM inactive at 100 uM and 1000 uM respectively | Human adenovirus 2 inactive at 100 uM and 1000 uM respectively | Human alphaherpesvirus 2 inactive at 100 uM and 1000 uM respectively | L1210 inactive at 100 uM and 1000 uM respectively | Influenza A virus inactive at 100 uM and 1000 uM respectively | Human rhinovirus 1A inactive at 100 uM and 1000 uM respectively | Human respirovirus 3 inactive at 100 uM and 1000 uM respectively | Visna-maedi virus inactive at 100 uM and 1000 uM respectively | Homo sapiens inactive at 100 uM and 1000 uM respectively

Nc1cnn2c([C@@H]3O[C@H](CO)[C@@H](O)[C@H]3O)nnc2c1
inactive: Semliki Forest virus inactive at 100 uM and 1000 uM respectively | CCRF-CEM inactive at 100 uM and 1000 uM respectively | Human adenovirus 2 inactive at 100 uM and 1000 uM respectively | Human alphaherpesvirus 2 inactive at 100 uM and 1000 uM respectively | L1210 inactive at 100 uM and 1000 uM respectively | Influenza A virus inactive at 100 uM and 1000 uM respectively | Human rhinovirus 1A inactive at 100 uM and 1000 uM respectively | Human respirovirus 3 inactive at 100 uM and 1000 uM respectively | Visna-maedi virus inactive at 100 uM and 1000 uM respectively | Homo sapiens inactive at 100 uM and 1000 uM respectively

Nc1ccc2nnc([C@@H]3O[C@H](CO)[C@@H](O)[C@H]3O)n2n1
inactive: Semliki Forest virus inactive at 100 uM and 1000 uM respectively | CCRF-CEM inactive at 100 uM and 1000 uM respectively | Human adenovirus 2 inactive at 100 uM and 1000 uM respectively | Human alphaherpesvirus 2 inactive at 100 uM and 1000 uM respectively | L1210 inactive at 100 uM and 1000 uM respectively | Influenza A virus inactive at 100 uM and 1000 uM respectively | Human rhinovirus 1A inactive at 100 uM and 1000 uM respectively | Human respirovirus 3 inactive at 100 uM and 1000 uM respectively | Visna-maedi virus inactive at 100 uM and 1000 uM respectively | Homo sapiens inactive at 100 uM and 1000 uM respectively

Nc1c(Cl)cnn2c([C@@H]3O[C@H](CO)[C@@H](O)[C@H]3O)nnc12
inactive: Semliki Forest virus inactive at 100 uM and 1000 uM respectively | CCRF-CEM inactive at 100 uM and 1000 uM respectively | Human adenovirus 2 inactive at 100 uM and 1000 uM respectively | Human alphaherpesvirus 2 inactive at 100 uM and 1000 uM respectively | L1210 inactive at 100 uM and 1000 uM respectively | Influenza A virus inactive at 100 uM and 1000 uM respectively | Human rhinovirus 1A inactive at 100 uM and 1000 uM respectively | Human respirovirus 3 inactive at 100 uM and 1000 uM respectively | Visna-maedi virus inactive at 100 uM and 1000 uM respectively | Homo sapiens inactive at 100 uM and 1000 uM respectively

O=c1ccc2nnc([C@@H]3O[C@H](CO)[C@@H](O)[C@H]3O)n2[nH]1
inactive: Semliki Forest virus inactive at 100 uM and 1000 uM respectively | CCRF-CEM inactive at 100 uM and 1000 uM respectively | Human adenovirus 2 inactive at 100 uM and 1000 uM respectively | Human alphaherpesvirus 2 inactive at 100 uM and 1000 uM respectively | L1210 inactive at 100 uM and 1000 uM respectively | Influenza A virus inactive at 100 uM and 1000 uM respectively | Human rhinovirus 1A inactive at 100 uM and 1000 uM respectively | Human respirovirus 3 inactive at 100 uM and 1000 uM respectively | Visna-maedi virus inactive at 100 uM and 1000 uM respectively | Homo sapiens inactive at 100 uM and 1000 uM respectively
